From patent US4508716A, “[1,2]-Fused 1,4-benzodiazepine compounds, process for their preparation and compositions containing them” (Kali-Chemie Pharma GmbH, priority 1981, dated 1985)

Columns and labels:
[1] = Acute toxicity (acute 7-day toxicity following a single oral administration, LD50 by probit analysis); details: mouse, in vivo, NMR1 mice
Procedure: The acute 7-day toxicity is determined following a single oral administration to white, fasting NMR1 mice, and the LD50 value is calculated by electronic data processing, by probit analysis.

[2] = tested on: apomorphine-induced climbing behaviour; experiment: Test for neuroleptic properties: inhibition of apomorphine-induced climbing behaviour in mice; type: in vivo; details: Mus musculus, male NMR1 mice, 60 min before apomorphine 1.0 mg/kg s.c.; for inhibition in vivo at 2.2 mg/kg: dose 2.2 mg/kg peroral
Procedure: 2. Test for neuroleptic properties
Determination of the effective dose for inhibiting apomorphine-induced climbing behaviour in mice (modified method of P. Protais et al., Psychopharmacology 50, (1976), 1-6).
Groups each containing 10 male NMR1 mice of 18-24 g. body weight are used per test dose. The test substance is administered perorally, as a suspension in […] "Tylose" solution.
After 60 minutes, the animals are each injected subcutaneously with 1.0 mg./kg. of apomorphine, and immediately after the injection, each animal is placed under a vertical wire mesh cylinder (diameter 13 cm., height 16 cm., closed at the top). After 10, 20 and 30 minutes, the climbing behaviour of the animals is evaluated in accordance with the following point system:
0 points=no paw on the mesh
1 point=one or two paws touching the mesh
2 points=three or all paws gripping the mesh, or climbing
For each test group, the sum of the points (maximum number of points=20) at the three test times is determined, and the average of the 3 values is taken for calculating the inhibition of climbing behaviour effected by the test substance.
In the table which follows, the inhibiting action is given in % inhibition in comparison with the climbing behaviour of a control group which was not treated with the test substance.

hexobarbital anaesthesia = experiment: Test for the central nervous system sedating properties: prolongation of the duration of hexobarbital anaesthesia in mice; type: in vivo; details: male mice, 60 min before hexobarbital sodium 50 mg/kg i.v.

CN1CCN2c3ccccc3C(c3cccs3)=NCC2C1 (centres unmarked) [Example 4, 1,2,3,4,4a,5-Hexahydro-3-methyl-7-(2-thienyl)-pyrazino[1,2-a][1,4]benzodiazepine]
LD50 at 168 h [1]: ~440 mg/kg | inhibition in vivo at 2.9 mg/kg ([2]; dose 2.9 mg/kg peroral): 70% | Prolongation of the duration of hexobarbital anaesthesia, prolongation factor (hexobarbital anaesthesia; dose ≤13.8 mg/kg peroral): 0

CN1CCN2c3ccc(Cl)cc3C(c3cccn3C)=NCC2C1 (centres unmarked) [Example 9, 1,2,3,4,4a,5-Hexahydro-9-chloro-3-methyl-7-[2-(N-methyl)-pyrrolyl]-pyrazino[1,2-a][1,4]benzodiazepine]
LD50 at 168 h [1]: > 893 mg/kg | inhibition in vivo at 4.2 mg/kg ([2]; dose 4.2 mg/kg peroral): 48% | Prolongation of the duration of hexobarbital anaesthesia, prolongation factor (hexobarbital anaesthesia; dose ≤41.5 mg/kg peroral): 0

Cc1ccc2c(c1)C(c1ccco1)=NCC1CN(C)CCN21 (centres unmarked) [Example 10a, 1,2,3,4,4a,5-Hexahydro-3,9-dimethyl-7-(2-furyl)-pyrazino[1,2-a][1,4]benzodiazepine]
LD50 at 168 h [1]: > 422 mg/kg | inhibition in vivo at 13.3 mg/kg ([2]; dose 13.3 mg/kg peroral): 31% | Prolongation of the duration of hexobarbital anaesthesia, prolongation factor (hexobarbital anaesthesia; dose ≤42.2 mg/kg peroral): 0

Cc1ccc2c(c1)C(c1ccc(Br)s1)=NCC1COCCN21 (centres unmarked) [Example 22]
LD50 at 168 h [1]: > 811 mg/kg | inhibition in vivo at 8.1 mg/kg ([2]; dose 8.1 mg/kg peroral): 50% | Prolongation of the duration of hexobarbital anaesthesia, prolongation factor (hexobarbital anaesthesia; dose 37.7 mg/kg peroral): 1.5

Cc1ccc2c(c1)C(c1ccco1)=[N+]([O-])CC1CN(C)CCN21 (centres unmarked) [Example 35]
LD50 at 168 h [1]: > 311 mg/kg | inhibition in vivo at 9.8 mg/kg ([2]; dose 9.8 mg/kg peroral): 35% | Prolongation of the duration of hexobarbital anaesthesia, prolongation factor (hexobarbital anaesthesia; dose 9.8 mg/kg peroral): 2.1

COc1ccc2c(c1)N1CCN(C)CC1C[N+]([O-])=C2c1ccco1 (centres unmarked) [Example 36]
LD50 at 168 h [1]: > 704 mg/kg | inhibition in vivo at 22.3 mg/kg ([2]; dose 22.3 mg/kg peroral): 34% | Prolongation of the duration of hexobarbital anaesthesia, prolongation factor (hexobarbital anaesthesia; dose ≤70.4 mg/kg peroral): 0

CCOc1ccc2c(c1)C(c1ccn(C)c1)=NCC1CN(C)CCN21 (centres unmarked) [Example 41]
inhibition in vivo at 13.9 mg/kg ([2]; dose 13.9 mg/kg peroral): 14% | Prolongation of the duration of hexobarbital anaesthesia, prolongation factor (hexobarbital anaesthesia; dose 43.8 mg/kg peroral): 1.6

COc1ccc2c(c1)N1CCN(C)CC1CN=C2c1cccs1 (centres unmarked) [Example 51]
LD50 at 168 h [1]: > 704 mg/kg | inhibition in vivo at 2.2 mg/kg [2]: 57% | Prolongation of the duration of hexobarbital anaesthesia, prolongation factor (hexobarbital anaesthesia; dose 22.3 mg/kg peroral): 1.9

CN1CCN2c3cc(F)ccc3C(c3cccs3)=NCC2C1 (centres unmarked) [Example 55]
LD50 at 168 h [1]: > 315 mg/kg | inhibition in vivo at 0.2 mg/kg ([2]; dose 0.2 mg/kg peroral): 47% | Prolongation of the duration of hexobarbital anaesthesia, prolongation factor (hexobarbital anaesthesia; dose 6.8 mg/kg peroral): 1.3

Cc1cc(C)c2c(c1)N1CCOCC1CN=C2c1cccs1 (centres unmarked) [Example 63]
inhibition in vivo at 21.3 mg/kg ([2]; dose 21.3 mg/kg peroral): 11% | Prolongation of the duration of hexobarbital anaesthesia, prolongation factor (hexobarbital anaesthesia; dose 67.2 mg/kg peroral): 1.5

Cc1cc(C)c2c(c1)N1CCSCC1CN=C2c1cccs1 (centres unmarked) [Example 65]
inhibition in vivo at 22.4 mg/kg ([2]; dose 22.4 mg/kg peroral): 12%

CCN1CCN2c3ccccc3C(c3cccs3)=NCC2C1 (centres unmarked) [Example 69]
LD50 at 168 h [1]: ~420 mg/kg | inhibition in vivo at 0.7 mg/kg ([2]; dose 0.7 mg/kg peroral): 71% | Prolongation of the duration of hexobarbital anaesthesia, prolongation factor (hexobarbital anaesthesia; dose ≤28.0 mg/kg peroral): 0

C=CCN1CCN2c3ccccc3C(c3cccs3)=NCC2C1 (centres unmarked) [Example 70]
LD50 at 168 h [1]: ~790 mg/kg | inhibition in vivo at 2.2 mg/kg [2]: 36% | Prolongation of the duration of hexobarbital anaesthesia, prolongation factor (hexobarbital anaesthesia; dose ≤39.6 mg/kg peroral): 0

CC(C)CCN1CCN2c3ccccc3C(c3cccs3)=NCC2C1 (centres unmarked) [Example 74]
LD50 at 168 h [1]: ~730 mg/kg | inhibition in vivo at 3.3 mg/kg ([2]; dose 3.3 mg/kg peroral): 70% | Prolongation of the duration of hexobarbital anaesthesia, prolongation factor (hexobarbital anaesthesia; dose 33.0 mg/kg peroral): 2.0
